Literature values, collected in US20070218119A1, “STEROL ENRICHED MIXED LAMMELARITY AMPHOTERICIN INTERCALATING LIPOSOMES IN SALINE AND THE PROCESS FOR THEIR PREPARATION” (priority 2004, published 2007).

Details: conventional Amphotericin B mixed with 0.9% Sodium Chloride (Martindale)

- precipitation in 0.9% Sodium Chloride: precipitation of Amphotericin B
SMILES: C[C@@H]1[C@H](O)[C@@H](C)/C=C/C=C/C=C/C=C/C=C/C=C/C=C/[C@H](O[C@@H]2O[C@H](C)[C@@H](O)[C@H](N)[C@@H]2O)C[C@@H]2O[C@](O)(C[C@@H](O)C[C@@H](O)[C@H](O)CC[C@@H](O)C[C@@H](O)CC(=O)O[C@H]1C)C[C@H](O)[C@H]2C(=O)O [conventional Amphotericin B, Amphotericin B]
